Data as given in patent US12599590B2 (TriviumVet DAC, priority 2019, dated 2026).

How the values were obtained:
[1] = typical gastric pH range; cited from earlier work
healthy dogs = conditions: 0.05 or 0.1 mg/kg orally three times per week, 10 weeks; cited from earlier work
[2] = Feline repeat dose toxicokinetic study of oral enteric-coated formulations; type: in vivo; conditions: whole blood, cats, oral enteric-coated formulation, Mean; for AUC(0-t): read-out: AUC0-72
Method: This represents a first-in-species repeat dose test toxicokinetic study in cats. Pharmacokinetic sampling was performed after the first and last doses.

[3] = Canine pharmacokinetics of enteric coated formulations at 0.15 mg/kg (T1) and 0.75 mg/kg (T5); type: in vivo; conditions: dogs, oral enteric coated formulation; for AUC(0-inf) / AUC(0-t) / Cmax / Tmax / half-life: dog, blood, po
[4] = cited from earlier work
[5] = 0.15 mg/kg, 0.15 mg/kg three times a week, Day 26, whole blood
[6] = 0.15 mg/kg, 0.15 mg/kg, Day 0, whole blood
[7] = 0.45 mg/kg, 0.45 mg/kg three times a week, Day 26, whole blood
[8] = 0.45 mg/kg, 0.45 mg/kg, Day 0, whole blood
[9] = 0.75 mg/kg, 0.75 mg/kg three times a week, Day 26, whole blood
[10] = 0.75 mg/kg, 0.75 mg/kg, Day 0, whole blood
[11] = 0.15 mg/kg, T1 0.15 mg/kg, Arith. Mean
[12] = 0.15 mg/kg, T1 0.15 mg/kg, Median
[13] = 0.75 mg/kg, T5 0.75 mg/kg, Arith. Mean
[14] = 0.75 mg/kg, T5 0.75 mg/kg, Median

CO[C@H]1C[C@@H]2CC[C@@H](C)[C@@](O)(O2)C(=O)C(=O)N2CCCC[C@H]2C(=O)O[C@H]([C@H](C)C[C@@H]2CC[C@@H](O)[C@H](OC)C2)CC(=O)[C@H](C)/C=C(\C)[C@@H](O)[C@@H](OC)C(=O)[C@H](C)C[C@H](C)/C=C/C=C/C=C/1C [rapamycin]
acid stability [1]: rapidly degrades within the typical gastric pH range
clinical side effects and hematological changes (healthy dogs): did not cause significant clinical side effects or abnormal hematological changes
Cmax [2, 5]: 2.26 ng/mL
AUC(0-t) [2, 5]: 54 ng·h/mL
Cmax [2, 6]: 2.85 ng/mL
Tmax [2, 6]: 4 h
AUC(0-t) [2, 6]: 41 ng·h/mL
Cmax [2, 7]: 6.98 ng/mL
Tmax [2, 7]: 2 h
AUC(0-t) [2, 7]: 182 ng·h/mL
Cmax [2, 8]: 4.4 ng/mL
AUC(0-t) [2, 8]: 99.5 ng·h/mL
Cmax [2, 9]: 8.07 ng/mL
Tmax [2, 9]: 2 h
AUC(0-t) [2, 9]: 248 ng·h/mL
Cmax [2, 10]: 7.56 ng/mL
Tmax [2, 10]: 2 h
AUC(0-t) [2, 10]: 135 ng·h/mL
AUC(0-inf) [3, 11]: 42.7 ng·h/mL
AUC(0-t) [3, 11]: 40.8 ng·h/mL
Cmax [3, 11]: 2.23 ng/mL
Tmax [3, 11]: 1.83 h
half-life [3, 11]: 16.4 h
AUC(0-inf) [3, 12]: 38.5 ng·h/mL
AUC(0-t) [3, 12]: 45.2 ng·h/mL
Cmax [3, 12]: 2.17 ng/mL
Tmax [3, 12]: 2 h
half-life [3, 12]: 13.6 h
AUC(0-inf) [3, 13]: 102 ng·h/mL
AUC(0-t) [3, 13]: 111 ng·h/mL
Cmax [3, 13]: 4.41 ng/mL
Tmax [3, 13]: 2.17 h
half-life [3, 13]: 20.2 h
AUC(0-inf) [3, 14]: 98.4 ng·h/mL
AUC(0-t) [3, 14]: 96.9 ng·h/mL
Cmax [3, 14]: 3.14 ng/mL
Tmax [3, 14]: 2 h
half-life [3, 14]: 20.5 h
kelim ([3]; T1 0.15 mg/kg, Arith. Mean): 0.0596 h⁻¹
kelim ([3]; T1 0.15 mg/kg, Median): 0.0627 h⁻¹
kelim ([3]; T5 0.75 mg/kg, Arith. Mean): 0.0357 h⁻¹
kelim ([3]; T5 0.75 mg/kg, Median): 0.0338 h⁻¹
solubility in water [4]: poorly soluble in water
